Experimental findings from patent US8592174B2, “Peptidase substrates” (bioMérieux, S.A., priority 2009, dated 2013) are described below.

What all share (assay type): cell-based
The subject of data set [1] is Citrobacter freundii 05 04 165. In words: pH variation detection on modified chromID Coli medium (Example 6). Conditions: 50 mg/l, 24 h 37° C. More on the design: Coloration strength: key to the marks not given beside the values. The procedure: (§1) The media were incubated for 24 hours at 37° C., then the spots formed were examined visually.
In data set [2] the test system is Pantoea agglomerans 04 05 057. Described as above. To be noted: 50 mg/l, 24 h 37° C. Also on record: Coloration strength: key to the marks not given beside the values. Here is the method:
as §1

Data set [3] relates to Ewingella americana 05 06 045. Described as above. More on the design: Coloration strength: key to the marks not given beside the values. Conditions: 50 mg/l, 24 h 37° C. The procedure: as §1
The test system of a further data set is E. coli 05 04 163. The data set is described as above. Also on record: Coloration strength: key to the marks not given beside the values. To be noted: 50 mg/l, 24 h 37° C. Here is the method:
as §1

For data set [4], the system named is Salmonella ser. Enteritidis 94 06 001. The description is as above. Conditions: 50 mg/l, 24 h 37° C. Also on record: Coloration strength: key to the marks not given beside the values. Here is the method:
as §1

Data set [5] relates to Kluyvera ascorbata 84 08 084. Described as above. More on the design: Coloration strength: key to the marks not given beside the values. To be noted: 50 mg/l, 24 h 37° C. Here is the method:
as §1

Data set [6] deals with Forty-four strains of microorganisms. Kind of data set: pH variation detection on modified chromID Coli medium (Example 6), all strains. Conditions: 50 mg/l; 24 h 37° C.; conclusion of Example 6. Here is the method: as §1
The subject of data set [7] is Citrobacter freundii 0006197. Kind of data set: Peptidase detection on Columbia medium (Example 5). Conditions: 75 mg/l, 48 h 37° C. Here is the method:
(§2) After homogenization, the media were distributed into Petri dishes 55 mm in diameter. A medium acting as a growth control (Columbia) and denoted C was also poured.
(§3) Twenty-two strains of microorganisms were inoculated with a 10 μl calibrated loop according to the three-quadrant streaking method using bacterial suspensions at 0.5 McFarland.

Another data set relates to MRSA 0303033. In words: Peptidase detection on Columbia medium (Example 5). To be noted: 75 mg/l, 48 h 37° C. Here is the method:
as §2, §3

Data set [8] concerns Acinetobacter baumannii 0604029. Kind of data set: Peptidase detection on Columbia medium (Example 5). Conditions: 75 mg/l, 48 h 37° C. The procedure: as §2, §3
In data set [9] the test system is Staphylococcus aureus 7811049. In words: Peptidase detection on Columbia medium (Example 5). To be noted: 75 mg/l, 48 h 37° C. The procedure:
as §2, §3

Data set [10] has as its system Listeria monocytogenes 8812049. Kind of data set: Peptidase detection on Columbia medium (Example 5). Conditions: 75 mg/l, 48 h 37° C. Here is the method: as §2, §3
A further data set concerns Escherichia coli 0002005. In words: Peptidase detection on Columbia medium (Example 5). Conditions: 75 mg/l, 48 h 37° C. The procedure: as §2, §3
Data set [11] deals with Bacillus subtilis 0204038. Kind of data set: Peptidase detection on Columbia medium (Example 5). To be noted: 75 mg/l, 48 h 37° C. The procedure:
as §2, §3

Data set [12] deals with Salmonella ser. Typhimurium 0801029. Kind of data set: Peptidase detection on Columbia medium (Example 5). To be noted: 75 mg/l, 48 h 37° C. Here is the method:
as §2, §3

For data set [13], the system named is Staphylococcus aureus NCTC 11 939. Kind of data set: Peptidase detection on Columbia medium (Example 2). Also on record: key to Growth: NG: No growth; 0.5: weak growth; 1: moderate growth; 2: good growth; key to Fluo. / Color / Color post-acid.: —: no color. To be noted: 40 mg in 400 ml Columbia; 24 h 37° C.
Method: (§4) The 6 media were distributed into Petri dishes 90 mm in diameter, in a proportion of 20 ml per dish.
(§5) Seventeen strains of microorganisms stemming from collections and belonging to various species of bacteria and yeasts are inoculated in spots of approximately 10 000 colony-forming units.
(§6) The media are incubated for 24 hours at 37° C., and then the colonies formed are examined visually, with or without the addition of acid and under a UV lamp at 365 nm.
Data set [14] deals with Providencia rettgeri NCTC 7 475. In words: Peptidase detection on Columbia medium (Example 2). More on the design: key to Growth: NG: No growth; 0.5: weak growth; 1: moderate growth; 2: good growth. Conditions: 40 mg in 400 ml Columbia; 24 h 37° C.
Method: as §4, §5, §6
Data set [15] relates to Serratia marcescens NCTC 10 211. Kind of data set: Peptidase detection on Columbia medium (Example 2). More on the design: key to Growth: NG: No growth; 0.5: weak growth; 1: moderate growth; 2: good growth. Conditions: 40 mg in 400 ml Columbia; 24 h 37° C.
Method: as §4, §5, §6
Data set [16] relates to Escherichia coli NCTC 10 418. Kind of data set: Peptidase detection on Columbia medium (Example 2). More on the design: key to Growth: NG: No growth; 0.5: weak growth; 1: moderate growth; 2: good growth. Conditions: 40 mg in 400 ml Columbia; 24 h 37° C.
Method: as §4, §5, §6
The subject of data set [17] is Enterococcus faecium NCTC 7 171. Kind of data set: Peptidase detection on Columbia medium (Example 2). More on the design: key to Growth: NG: No growth; 0.5: weak growth; 1: moderate growth; 2: good growth; key to Fluo. / Color / Color post-acid.: —: no color. Conditions: 40 mg in 400 ml Columbia; 24 h 37° C.
Method: as §4, §5, §6
Data set [18] has as its system Salmonella typhimurium NCTC 74. In words: Peptidase detection on Columbia medium (Example 2). Also on record: key to Growth: NG: No growth; 0.5: weak growth; 1: moderate growth; 2: good growth. To be noted: 40 mg in 400 ml Columbia; 24 h 37° C.
Method: as §4, §5, §6
The test system of data set [19] is Enterobacter cloacae NCTC 11 936. In words: Peptidase detection on Columbia medium (Example 2). Also on record: key to Growth: NG: No growth; 0.5: weak growth; 1: moderate growth; 2: good growth. Conditions: 40 mg in 400 ml Columbia; 24 h 37° C.
Method: as §4, §5, §6
Data set [20] deals with Candida glabrata NCPF 3 943. In words: Peptidase detection on Columbia medium (Example 2). More on the design: key to Growth: NG: No growth; 0.5: weak growth; 1: moderate growth; 2: good growth; key to Fluo. / Color / Color post-acid.: —: no color. Conditions: 40 mg in 400 ml Columbia; 24 h 37° C.
Method: as §4, §5, §6
The test system of data set [21] is Staphylococcus epidermidis NCTC 11 047. Kind of data set: Peptidase detection on Columbia medium (Example 2). To be noted: 40 mg in 400 ml Columbia; 24 h 37° C. More on the design: key to Growth: NG: No growth; 0.5: weak growth; 1: moderate growth; 2: good growth; key to Fluo. / Color / Color post-acid.: —: no color.
Method: as §4, §5, §6
The subject of data set [22] is Yersinia enterocolitica NCTC 11 176. In words: Peptidase detection on Columbia medium (Example 2). More on the design: key to Growth: NG: No growth; 0.5: weak growth; 1: moderate growth; 2: good growth. To be noted: 40 mg in 400 ml Columbia; 24 h 37° C.
Method: as §4, §5, §6

Consider `Nc1ccc(C=Cc2ccnc3ccccc23)cc1`, for which the Color entry (in data set [1]; in data set [2]; in data set [3]; in the data set with E. coli 05 04 163; in data set [4]; in data set [5]) was “Orange” each time. Also, the Coloration strength result (in data set [1]; in [2]; in [3]; with E. coli 05 04 163; in data set [4]; in data set [5]) was “++” throughout. Further, the Growth result (in [1] (control C: ++); in [2] (control C: ++); in data set [3] (control C: ++); in the data set on E. coli 05 04 163 (control C: ++); in [4] (control C: ++); in data set [5] (control C: ++)) was “++” in each case. Besides, the toxicity result in [6] is recorded as “does not exhibit any particular toxicity”.

Take `C[C@H](N)C(=O)Nc1ccc(C=Cc2cc[n+](C)c3ccccc23)cc1.Cl.[Cl-]` [L-alanyl-4-(4′-amidostyryl)-N-methylquinolinium (dichloride)]: the Color entry (in data set [7]; with MRSA 0303033; in data set [8]; in data set [9]; in data set [10]; in the data set on Escherichia coli 0002005) was “orange” in each case. Further, the Color entry in [11] is “orange”; in data set [12], “−”. Further, the Coloration strength entry in [7] is given as “++”; in the data set with MRSA 0303033, “++”; in [8] it was “++”; in data set [9], “+”; in data set [10], “++”; with Escherichia coli 0002005, “++”. For the same compound, the Coloration strength result in data set [11] is given as “+”; in data set [12], “−”. The Growth result in data set [7] (control C: ++) is recorded as “++”; in the data set on MRSA 0303033 (control C: ++), “++”; in data set [8] (control C: ++), “++”; in data set [9] (control C: ++) it was “++”; in [10] (control C: +), “+”; in the data set with Escherichia coli 0002005 (control C: ++), “++”. Further, the Growth entry in data set [11] (control C: ++) and in data set [12] (control C: ++) was “++” throughout.

Turning to `C[C@H](N)C(=O)N[C@@H](C)C(=O)N[C@@H](C)C(=O)Nc1ccc(C=Cc2cc[n+](C)c3ccccc23)cc1.Cl.[Cl-]` [Tri-Ala-ASQM^+, L-alanyl-L-alanyl-L-alanyl-4-(4′-amidostyryl)-N-methylquinolinium (dichloride)], the Color entry is listed as “—” in data set [13]; “Orange” in data set [15]; “Orange” in data set [16]; “—” in data set [17]; “Orange” in [18]; “Orange” in data set [19]. Moreover, the Color result in data set [20] and in data set [21] was “—” throughout. Also, the Growth in [13], in [14], in data set [15], in data set [16], in data set [17] and in data set [18] was 2 each time. The Growth in data set [19], in data set [20], in data set [21] and in [22] was 2 in each case.
